Three molecules from patent US20250382344A1, “Soluble GLP1/GIP/NPY2 Receptor Triple Agonists” (Boehringer Ingelheim International GmH, priority 2024, published 2025) can be followed below.

The target in one data set is T1, hGIPR (Homo sapiens, UniProt P48546).
T1 construct: expressed in transfected cells; host or cells: CHO CRE-luciferase reporter cells
T1 sequence (P48546 22-466): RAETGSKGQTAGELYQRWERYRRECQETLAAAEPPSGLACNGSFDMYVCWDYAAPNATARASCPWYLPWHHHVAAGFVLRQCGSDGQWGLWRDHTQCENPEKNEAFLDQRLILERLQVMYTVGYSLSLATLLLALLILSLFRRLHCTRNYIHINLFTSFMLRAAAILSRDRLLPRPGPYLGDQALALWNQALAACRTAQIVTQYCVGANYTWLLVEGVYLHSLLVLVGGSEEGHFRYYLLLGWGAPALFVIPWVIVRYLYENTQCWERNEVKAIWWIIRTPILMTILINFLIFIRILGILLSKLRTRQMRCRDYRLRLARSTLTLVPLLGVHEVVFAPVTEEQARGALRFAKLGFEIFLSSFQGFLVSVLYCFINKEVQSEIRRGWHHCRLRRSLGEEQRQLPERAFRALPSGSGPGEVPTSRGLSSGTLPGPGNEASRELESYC
In words: hGIPR CreLuc assay in 0.5% and 100% plasma (CHO CRE-luciferase reporter cells). The format is cell-based. Particulars: 0.5% human plasma, read-out: hGIPR 0.5% hP. Background: A reporter such as luciferase makes a cellular process visible.

Another data set has as its target T2, hNPY2R (Homo sapiens, UniProt P49146).
T2 construct: expressed in transfected cells; host or cells: HEK-293 CRE-luciferase reporter cells
T2 sequence (P49146 1-381): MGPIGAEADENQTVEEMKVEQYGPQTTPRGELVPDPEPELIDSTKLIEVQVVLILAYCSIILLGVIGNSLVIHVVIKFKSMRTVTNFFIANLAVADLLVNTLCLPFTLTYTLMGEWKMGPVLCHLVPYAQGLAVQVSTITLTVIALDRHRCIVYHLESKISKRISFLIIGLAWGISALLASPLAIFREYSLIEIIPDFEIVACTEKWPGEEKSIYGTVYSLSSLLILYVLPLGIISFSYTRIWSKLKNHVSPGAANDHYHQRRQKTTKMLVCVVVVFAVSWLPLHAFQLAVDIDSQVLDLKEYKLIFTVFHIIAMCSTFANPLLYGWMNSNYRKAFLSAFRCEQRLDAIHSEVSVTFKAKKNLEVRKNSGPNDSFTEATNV
In words: hNPY2R CreLuc assay in 0.5% and 100% plasma (HEK-293 CRE-luciferase reporter cells). The format is cell-based. Particulars: HEK-293 reporter cells.

Data set [1] in a line: Solubility in 0.1 M phosphate buffer at pH 7. Particulars: 0.1 M phosphate buffer at pH 7, 10 mg/mL final peptide concentration, shaking 2 hours at room temperature, peptides as TFA-salts; measured sample pH 6.5-7.0. The class given is physicochemical.
Data set [2] can be described thus: Mouse PK after intravenous application. The format is in vivo. Particulars: plasma, male NMRI mice, intravenous 30-60 nmol/kg, non-compartmental analysis. Here is the method:
Pharmacokinetic parameters of the peptides were determined after intravenous application to NMRI mice (Naval Medical Research Institute mice). Male NMRI mice were obtained from Janvier Laboratories (France) weighing 30 g to 40 g. Mice were housed in standard cages with a 12:12 hours light:dark cycle and standard food and water access ad libitum. Each test peptide was dissolved in 50 mM phosphate buffer (pH 7.4)/3.5% mannitol. Intravenous application of 30-60 nmol/kg was performed via the tail vein. Serial blood samples from conscious mice were collected from the saphenous vein in EDTA-containing vials at different time points up to 56 hours post-dosing. Subsequently, plasma was prepared by centrifugation for 5 minutes at approximately 5000 rpm and stored at −20° C. until quantification of the peptide plasma levels by liquid chromatography mass spectrometry (LC-MS). Individual plasma concentration-time profiles were analysed by a non-compartmental approach and the resulting pharmacokinetic parameters were calculated.

Another data set deals with T3, hGLP1R (Homo sapiens, UniProt P43220).
T3 construct: expressed in transfected cells; host or cells: HEK-293 CRE-luciferase reporter cells
T3 sequence (P43220 24-463): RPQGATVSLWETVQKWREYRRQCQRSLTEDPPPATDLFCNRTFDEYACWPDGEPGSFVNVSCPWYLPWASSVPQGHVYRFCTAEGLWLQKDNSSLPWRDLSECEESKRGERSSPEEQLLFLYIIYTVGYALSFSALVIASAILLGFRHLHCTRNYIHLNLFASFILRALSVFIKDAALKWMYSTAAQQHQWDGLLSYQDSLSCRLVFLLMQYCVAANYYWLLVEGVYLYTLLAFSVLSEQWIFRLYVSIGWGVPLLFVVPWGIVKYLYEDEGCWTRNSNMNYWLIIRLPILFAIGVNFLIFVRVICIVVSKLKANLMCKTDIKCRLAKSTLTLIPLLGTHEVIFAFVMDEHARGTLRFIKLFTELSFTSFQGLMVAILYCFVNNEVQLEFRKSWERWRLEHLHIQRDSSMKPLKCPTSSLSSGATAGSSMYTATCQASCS
Nature of the data set: hGLP1R CreLuc assay in 0.5% and 100% plasma (HEK-293 CRE-luciferase reporter cells). The class given is cell-based. Particulars: HEK-293 reporter cells.

Where [3] appears, read: 0.5% human plasma, read-out: hGLP1R 0.5% hP.
Where [4] appears, read: 0.5% human plasma, read-out: hNPY2R 0.5% hP.

By solubility is commonly meant the dissolved amount per volume that the medium holds. A word on the MRT: it is the average time that molecules of a dose stay in the body.

pEC50: −log10 of the molar value. Like-named read-outs stand apart in the source and are kept apart here.

For the molecule `CC[C@H](C)[C@H](NC(=O)[C@H](CC(C)C)NC(=O)[C@H](Cc1c[nH]cn1)NC(=O)[C@H](CCCNC(=N)N)NC(=O)[C@@H](NC(=O)[C@H](Cc1ccccc1)NC(=O)[C@H](C)NC(=O)C(C)(C)NC(=O)[C@H](CCC(=O)O)NC(=O)[C@H](C)NC(=O)[C@H](CCC(N)=O)NC(=O)[C@H](CCCCN)NC(=O)[C@H](CCC(=O)O)NC(=O)[C@H](CC(C)C)NC(=O)C(C)(C)NC(=O)[C@@H](NC(=O)[C@H](CO)NC(=O)[C@H](Cc1ccc(O)cc1)NC(=O)[C@H](CC(=O)O)NC(=O)[C@H](CO)NC(=O)[C@@H](NC(=O)[C@H](Cc1ccccc1)NC(=O)[C@@H](NC(=O)CNC(=O)[C@H](CCC(=O)O)NC(=O)C(C)(C)NC(=O)[C@@H](N)Cc1ccc(O)cc1)[C@@H](C)O)[C@@H](C)O)[C@@H](C)CC)C(C)C)C(=O)N[C@@H](CC(N)=O)C(=O)N[C@@H](CCCCNC(=O)[C@@H](N)CCCCNC(=O)CC[C@H](NC(=O)CC[C@H](NC(=O)CC[C@H](NC(=O)CC[C@H](NC(=O)CC[C@H](NC(=O)CC[C@H](NC(=O)CCCCCCCCCCCCCCCCC(=O)O)C(=O)O)C(=O)O)C(=O)O)C(=O)O)C(=O)O)C(=O)O)C(=O)NC(C)(C)C(=O)N[C@H](C(=O)N[C@@H](CCCNC(=N)N)C(=O)N[C@@H](CCC(N)=O)C(=O)N[C@@H](CCCNC(=N)N)C(=O)N[C@@H](Cc1ccc(O)cc1)C(N)=O)[C@@H](C)O` [Compound 10, Y-Aib-E-G-T-F-T-S-D-Y-S-I-Aib-L-E-K-Q-A-E-Aib-A-F-V-R-H-L-I-N-K(1,3)-Aib-T-R-Q-R-Y-NH2.C18DA-gGlu-gGlu-gGlu-gGlu-gGlu-gGlu-eLys(1,2)], the pEC50 on hGIPR is 9.22; on hNPY2R (100% human plasma, read-out: hNPY2R 100% hP), 7.55. The solubility at 2 h in data set [1] was found to be 3800 µg/mL. In addition, in data set [2], the MRT turned out to be 7.3 h.

Take `CC[C@H](C)[C@H](NC(=O)[C@H](CC(C)C)NC(=O)[C@H](Cc1c[nH]cn1)NC(=O)[C@H](CCCNC(=N)N)NC(=O)[C@@H](NC(=O)[C@H](Cc1ccccc1)NC(=O)[C@H](CCC(=O)O)NC(=O)C(C)(C)NC(=O)[C@H](CCC(N)=O)NC(=O)[C@H](C)NC(=O)[C@H](CCC(N)=O)NC(=O)[C@H](CCCCN)NC(=O)[C@H](CCC(=O)O)NC(=O)[C@H](CC(C)C)NC(=O)C(C)(C)NC(=O)[C@@H](NC(=O)[C@H](CO)NC(=O)[C@H](Cc1ccc(O)cc1)NC(=O)[C@H](CC(=O)O)NC(=O)[C@H](CO)NC(=O)[C@@H](NC(=O)[C@H](Cc1ccccc1)NC(=O)[C@@H](NC(=O)CNC(=O)[C@H](CCC(=O)O)NC(=O)C(C)(C)NC(=O)[C@@H](N)Cc1ccc(O)cc1)[C@@H](C)O)[C@@H](C)O)[C@@H](C)CC)C(C)C)C(=O)N[C@@H](CC(N)=O)C(=O)N[C@@H](CCCCNC(=O)[C@@H](N)CCCCNC(=O)CC[C@H](NC(=O)CC[C@H](NC(=O)CC[C@H](NC(=O)CC[C@H](NC(=O)CC[C@H](NC(=O)CC[C@H](NC(=O)CCCCCCCCCCCCCCCCC(=O)O)C(=O)O)C(=O)O)C(=O)O)C(=O)O)C(=O)O)C(=O)O)C(=O)N[C@@H](CC(C)C)C(=O)N[C@H](C(=O)N[C@@H](CCCNC(=N)N)C(=O)N[C@@H](CCC(N)=O)C(=O)N[C@@H](CCCNC(=N)N)C(=O)N[C@@H](Cc1ccc(O)cc1)C(N)=O)[C@@H](C)O` [Compound 83, Y-Aib-E-G-T-F-T-S-D-Y-S-I-Aib-L-E-K-Q-A-Q-Aib-E-F-V-R-H-L-I-N-K(1,3)-L-T-R-Q-R-Y-NH2.C18DA-gGlu-gGlu-gGlu-gGlu-gGlu-gGlu-eLys(1,2)]: the figures for the pEC50 on hGLP1R (setting [3]), on hGIPR and at hNPY2R (setting [4]) were 9.22, 9.40 and 7.77, respectively. For the same molecule, in data set [1], the solubility at 2 h stood at 3800 µg/mL. In addition, the MRT in data set [2] stood at 7.8 h.

In the case of `CC[C@H](C)[C@H](NC(=O)[C@H](CC(C)C)NC(=O)[C@H](Cc1c[nH]cn1)NC(=O)[C@H](CCCNC(=N)N)NC(=O)[C@@H](NC(=O)[C@H](Cc1ccccc1)NC(=O)[C@H](C)NC(=O)C(C)(C)NC(=O)[C@H](CCC(N)=O)NC(=O)[C@H](C)NC(=O)[C@H](CCC(N)=O)NC(=O)[C@H](CCCCN)NC(=O)[C@H](CCC(=O)O)NC(=O)[C@H](CC(C)C)NC(=O)C(C)(C)NC(=O)[C@@H](NC(=O)[C@H](CO)NC(=O)[C@H](Cc1ccc(O)cc1)NC(=O)[C@H](CC(=O)O)NC(=O)[C@H](CO)NC(=O)[C@@H](NC(=O)[C@H](Cc1ccccc1)NC(=O)[C@@H](NC(=O)CNC(=O)[C@H](CCC(=O)O)NC(=O)C(C)(C)NC(=O)[C@@H](N)Cc1ccc(O)cc1)[C@@H](C)O)[C@@H](C)O)[C@@H](C)CC)C(C)C)C(=O)N[C@@H](CC(N)=O)C(=O)N[C@@H](CCCCNC(=O)CC[C@H](NC(=O)CC[C@H](NC(=O)CC[C@H](NC(=O)CC[C@H](NC(=O)CC[C@H](NC(=O)CC[C@H](NC(=O)CCCCCCCCCCCCCCCCC(=O)O)C(=O)O)C(=O)O)C(=O)O)C(=O)O)C(=O)O)C(=O)O)C(=O)NC(C)(C)C(=O)N[C@H](C(=O)N[C@@H](CCCNC(=N)N)C(=O)N[C@@H](CCC(N)=O)C(=O)N[C@@H](CCCNC(=N)N)C(=O)N[C@@H](Cc1ccc(O)cc1)C(N)=O)[C@@H](C)O` [Compound 134, Y-Aib-E-G-T-F-T-S-D-Y-S-I-Aib-L-E-K-Q-A-Q-Aib-A-F-V-R-H-L-I-N-K(1,3)-Aib-T-R-Q-R-Y-NH2.C18DA-gGlu-gGlu-gGlu-gGlu-gGlu-gGlu(1,2)], the pEC50 was 9.00 at hGLP1R (setting [3]); 8.40 on hGLP1R (100% human plasma, read-out: hGLP1R 100% hP); 9.40 on hGIPR; 7.48 on hNPY2R (setting [4]). For the same molecule, the MRT in data set [2] was 5.3 h.
